Among the data in article PMC11773056, “The zymogenic form of SARS-CoV-2 main protease: A discrete target for drug discovery” (The Journal of Biological Chemistry, 2024) are EC50 values, retold here.

Structures are written as SMILES.

In this experiment the target is T1, M^pro expressed from mCherry-repM^pro-eGFP (total protease, all forms) (Severe acute respiratory syndrome coronavirus 2, UniProt P0DTD1).
T1 construct: gene rep
Briefly: cell-based. The note with it: read-out: HEK293T cells, reporter mCherry-repM^pro-eGFP / Total inhibition EC50.

Turning to `O=C(Oc1cncc(C(F)(F)F)c1)c1cccc2[nH]ccc12` [compound 1, Compound 1], the EC50 came out at 12.1 ± 2.8 µM.
